This is an account of results in patent publication US4839346A, “Antitumor anthracycline glycosides, intermediates thereof, and composition and use thereof” (priority 1986, dated 1989).

Structures are written as SMILES. ≈ marks a conversion by molar mass, not a printed value. Read-outs that look alike come from different tables or passages of the source.

Data set [1] in a line: In vivo effect against disseminated Gross leukemia in C3H mice. To be noted: mouse, in vivo; iv, mice with disseminated Gross leukemia; read-out: maxima tolerated dose (MxTD). The procedure:
(§1) EFFECT AGAINST GROSS LEUKEMIA^(A)
(§2) ^(A) EXPERIMENTS WERE PERFORMED IN C3H MICE, INOCULATED WITH 2 .times
(§3) 10^6 LEUKEMIA CELLS I.V.
(§4) ^(B) TREATMENT I.V. ON DAY 1 AFTER TUMOR INOCULUM.
(§5) ^(C) MEDIAN SURVIVAL TIME OF TREATED MICE/MEDIAN SURVIVAL TIME OF
(§6) ^(D) EVALUATED ON THE BASIS OF AUTOPSY FINDINGS.

Data set [2] deals with disseminated Gross leukemia. The data set is described as above. To be noted: for TOXIC DEATHS: evaluated on the basis of autopsy findings; for T/C %: median survival time treated/controls × 100. The procedure: as §1, §2, §3, §4, §5, §6
In data set [3] the test system is P388 cells. In words: Cytotoxic activity in vitro, cell counting after 48 hours exposure. In kind it is cell-based. To be noted: Mus musculus. The procedure:
(§7) Compound IB has been tested in comparison with daunorubicin (DNR) against HeLa and P388 cells in vitro (Table 1).
(§8) Cytotoxic activity of IB in comparison
^++ CYTOTOXICITY EVALUATED AFTER 48 HOURS EXPOSURE TO THE DRUGS BY
CELL COUNTING TECHNIQUE.

Data set [4] deals with HeLa cells. Nature of the data set: Cytotoxic activity in vitro, colony inhibition test after 24 hours exposure. To be noted: Homo sapiens. In kind it is cell-based. The procedure: as §7, §8
^+ COLONY INHIBITION TEST AFTER 24 HOURS EXPOSURE TO THE DRUGS.

For `COc1cccc2c1C(=O)c1c(O)c3c(c(O)c1C2=O)C[C@@](O)(C(=O)CO)C[C@@H]3O[C@H]1C[C@@H](CN)[C@@H](O)[C@H](C)O1` [IB, 3'-desamino-3'-aminomethyl-3',4'-epi-doxorubicin], the MTD in data set [1] was found to be 32.1 mg/kg. The “TOXIC DEATHS” value is listed as 0/10 in data set [2] (19 mg/kg i.v. on day 1), 0/10 in data set [2] (24.7 mg/kg i.v. on day 1) and 1/10 in data set [2] (32.11 mg/kg i.v. on day 1). In addition, the T/C % was determined as 167% in data set [2] (19 mg/kg i.v. on day 1 after tumor inoculum), 183% in data set [2] (24.7 mg/kg i.v. on day 1 after tumor inoculum) and 200% in data set [2] (32.11 mg/kg i.v. on day 1 after tumor inoculum). In data set [2] (administered iv), the “potency in vivo compared with DNR” value was “less potent than DNR”. For the same compound, in data set [2] (iv, at the maxima tolerated dose (32.11 mg/Kg; DNR MxTD=15 mg/Kg)), the “activity in vivo compared with DNR” value is listed as “more active than DNR”. Also, the IC50 in data set [3] (P388, cell counting after 48 hours exposure, read-out: ID50 (the source's name)) stood at 10 ng/mL (≈ 0.0179 µM); in data set [4] (colony inhibition test after 24 hours exposure, read-out: ID50 (the source's name)) it was 6.4 ng/mL (≈ 0.0115 µM).

Turning to `COc1cccc2c1C(=O)c1c(O)c3c(c(O)c1C2=O)C[C@@](O)(C(C)=O)C[C@@H]3O[C@H]1C[C@H](N)[C@H](O)[C@H](C)O1` [DNR, daunorubicin, reference compound], the MTD in data set [1] is 15 mg/kg. Further, the “TOXIC DEATHS” value in data set [2] (10 mg/kg i.v. on day 1) was 0/10; in data set [2] (15 mg/kg i.v. on day 1), 0/10; in data set [2] (22.5 mg/kg i.v. on day 1), 2/10. Moreover, the T/C % in data set [2] (10 mg/kg i.v. on day 1 after tumor inoculum) is 150%; in data set [2] (15 mg/kg i.v. on day 1 after tumor inoculum), 183%; in data set [2] (22.5 mg/kg i.v. on day 1 after tumor inoculum), 217%. Besides, the IC50 in data set [3] (P388, 48 h, read-out: ID50) came out at 8.4 ng/mL (≈ 0.0159 µM); in data set [4] (24 h, read-out: ID50), 10.5 ng/mL (≈ 0.0199 µM).
